Reference: patent publication US11952338B2, “Anticonvulsant compounds” (OWEN-BARRY PHARMACEUTICALS INC., priority 2017, dated 2024)

How the values were obtained:
[1] = detection in rat blood after oral or intravenous administration of Example 1; type: in vivo; conditions: for detection in blood: rats dosed with Example 1 orally or by vein injection, over 24 hours
Protocol: FIG. 7 is a graph showing the detection of the compounds of Example 1 and Example 2 in rat blood after oral or intravenous administration of the compound of Example 1.
FIG. 8 is a graph showing the time it takes for the compound of Example 1 to be converted in vivo to the compound of Example 2.
All rats were dosed with the compound of Example 1 either orally or by vein injection.

[2] = test system: isolated rat brain slices; assay: voltage sensitive dye imaging of electrically stimulated brain slices; type: cell-based
Protocol: The compounds described in the above examples display activity in in vitro and in vivo assays that track brain electrical activity. A first assay is conducted using voltage sensitive dye imaging. This is done on isolated rat brain slices kept viable in artificial cerebral spinal fluid (ACSF). Electrically stimulating the slice activates the neural assemblies therein. A voltage sensitive dye, such as, di-4-ANEPPS, is incubated with a brain slice for 1 hour in a suitable solution that enhances the dye penetration into the tissue. The dye reacts to changes in voltage across the cell membrane of the neurons in the brain slice. The example compounds are added to the ACSF at known concentration between 50 and 200 nM. The brain slices are then subjected to an electrical stimulus that activates the neurons in the slice. As the dye reacts to the change in voltage, which can be observed and quantified, the degree to which activation of the brain is dampened by the presence of the example compound is evaluated.

[3] = test system: voltage-gated sodium channels; assay: patch clamp electrophysiology on cultured cortical neurons; type: cell-based, rat; conditions: 100 μM
Protocol: In another assay, the inhibition by the example compounds on the activity of voltage-gated sodium channels is determined using patch clamp electrophysiology. This analysis is done on cultured cortical neurons isolated from rats. […] This was done by assessing the suppression of the voltage gated sodium channel activity 16 ms after a test pulse.
Under control conditions, recovery occurs at a rate of about 13 ms. In the presence of 100 μM of the compound of Example 1, recovery is slowed to a rate of about 26 ms, and recovery is substantially complete after about 50 ms. […] This is a desirable property for antiseizure compounds, as little or no block of normal function occurs, while reducing (epileptic) activity that occurs at high frequency.

[4] = test system: rodent kindling model of epilepsy (partial complex seizures); assay: amygdala kindling model of epilepsy; type: in vivo, rat; conditions: 20 mg/kg
Protocol: FIG. 4 is a summary of data showing the prevention, by the compound of Example 1 at a dose of 20 mg/kg, of stage 5 seizures in an animal model of partial complex seizures, using the amygdala kindling model of epilepsy. FIG. 5 is a graph showing that the pre-treatment of rats (20 mg/kg) undergoing the amygdala kindling procedure prevents the development of stage 5 seizures. […] This model produces partial complex seizures that are similar to temporal lobe seizures experienced by humans. […] Therefore, compounds according to the present invention, including preferably the compound of Example 1, may be used in prophylactic treatment or prevention of epileptogenesis.

[5] = test system: rodent model of traumatic brain injury/stress; assay: rodent model of traumatic brain injury/stress; type: in vivo, rat
Source text: FIG. 6 is an electrographic record of activity from the amygdala of a rat which has undergone traumatic brain injury and has been stressed (tail pinch). […] After moderate traumatic brain injury under control conditions, stress induces epileptiform activity in the amygdala. This activity is shown on the left in FIG. 6, where a stressor induces increased activity. […] On the right in FIG. 6, it is evident that the compound of Example 1 prevents the induction of this response and is particularly effective in reducing high frequency activity (i.e. >250 Hz) that is considered to be epileptogenic. This electrophysiological response in the control traumatic brain injury rats was accompanied by stage 2 to 3 seizures (Racine scale: av. 2.0±0.5 n=6 rats). These behavioral responses were blocked in the traumatic brain injury rats treated with the compound of Example 1.

[6] = stability in human plasma; type: in vitro ADME; conditions: human plasma dosed with Example 1
Source text: FIG. 9 is a graph showing the stability of the compound of Example 2 in human plasma once converted from the compound of Example 1.

| Structure (SMILES) | time course of conversion of Example 1 to Example 2 ([1]; rats dosed with 20 mg/kg of Example 1) | detection in blood [1] | effect on amplitude and duration of the response [2] | suppression of activation of the brain slice activity ([2]; 50 nM) | suppression of activation of the brain slice activity ([2]; 200 nM) | reduction of activity ([2]; 60 pulses/second) | activity at low stimulation frequency ([2]; stimulation frequency of 20 pulses/second) | recovery from inactivation [3] | time after which recovery is substantially complete [3] | rate of recovery of sodium channel inactivation ([3]; control about 13 ms) | stage 5 seizures ([4]; oral administration) | development of epileptic seizures ([4]; prior prophylactic dosing) | induction of seizure (epileptiform) activity in the amygdala by stress ([5]; after moderate traumatic brain injury, tail pinch) | behavioral responses (stage 2 to 3 seizures, Racine scale) ([5]; traumatic brain injury rats) | stability in human plasma [6] |
| --- | --- | --- | --- | --- | --- | --- | --- | --- | --- | --- | --- | --- | --- | --- | --- |
| COC(=O)c1ccc(C2=CC(=O)CC(C)(C)C2)cc1 [Example 1, Methyl 3′,3′-dimethyl-5′-oxo-2′,3′,4′,5′-tetrahydro-[1,1′-biphenyl]-4-carboxylate] | substantially complete within one hour | only detectable as the free acid | reduced both amplitude and duration of the response | 29±5% | 48±5% | 48% | little or no activity | 100% | about 50 ms | about 26 ms | prevents stage 5 seizures from occurring | prevents the onset of seizures | prevents the induction of seizure activity | blocked | – |
| CC1(C)CC(=O)C=C(c2ccc(C(=O)O)cc2)C1 [Example 2, 3′,3′-Dimethyl-5′-oxo-2′,3′,4′,5′-tetrahydro-[1,1′-biphenyl]-4-carboxylic acid] | – | the only molecule detected in significant quantities | – | – | – | – | – | – | – | – | – | – | – | – | stable and is not further converted to another molecule |
